# According to ChEMBL document CHEMBL6121016, “Design, Synthesis, and Biological Evaluation of 1,3,4-Thiadiazole Derivatives as Novel Potent Peptide Deformylase Inhibitors for Combating Drug-Resistant Gram-Positive and -Negative Bacteria” (J Med Chem, 2025):
# Legend:
# Klebsiella pneumoniae [1] = assay: Antibacterial activity against Klebsiella pneumoniae CICC 21092 after 16 to 18 hrs by broth microdilution method; type: functional; conditions: time 16-18 hrs
# Klebsiella pneumoniae [2] = assay: Antibacterial activity against Klebsiella pneumoniae CICC 21611 after 16 to 18 hrs by broth microdilution method; type: functional; conditions: time 16-18 hrs
# Acinetobacter baumannii [3] = assay: Antibacterial activity against Acinetobacter baumannii Bio 24253 after 16 to 18 hrs by broth microdilution method; type: functional; conditions: time 16-18 hrs
# [4] = Aqueous solubility of compound at 0.9% aqueous NaCl solution incubated for 2 hrs by UV spectrophotometry analysis; type: physicochemical
# Staphylococcus aureus [5] = assay: Bactericidal activity against methicillin-resistant Staphylococcus aureus assessed as bacteriostatic efficiency at 0.5 microg/mL incubated for 24 hrs by time killing analysis relative to control; type: functional; conditions: dose 0.5 µg/ml
# [6] = system: Staphylococcus epidermidis; assay: Antibacterial activity against Staphylococcus epidermidis after 16 to 18 hrs by broth microdilution method; type: functional; conditions: time 16-18 hrs
# [7] = Cytotoxicity against human HEK293T cells assessed as cell viability at 3.125 to 100 uM incubated for 24 hrs by MTT assay; type: toxicity, cell-based, HEK-293T
# Staphylococcus aureus [8] = assay: Antibacterial activity against methicillin-resistant Staphylococcus aureus ATCC 33591 after 16 to 18 hrs by broth microdilution method; type: functional; conditions: time 16-18 hrs
# Klebsiella pneumoniae [9] = assay: Antibacterial activity against Klebsiella pneumoniae CICC 20093 after 16 to 18 hrs by broth microdilution method; type: functional; conditions: time 16-18 hrs
# Escherichia coli [10] = assay: Antibacterial activity against Escherichia coli ATCC 10661 after 16 to 18 hrs by broth microdilution method; type: functional; conditions: time 16-18 hrs
# Acinetobacter baumannii [11] = assay: Antibacterial activity against Acinetobacter baumannii Bio 53272 after 16 to 18 hrs by broth microdilution method; type: functional; conditions: time 16-18 hrs
# Staphylococcus aureus [12] = assay: Antibacterial activity against methicillin-resistant Staphylococcus aureus ATCC 43300 after 16 to 18 hrs by broth microdilution method; type: functional; conditions: time 16-18 hrs
# Acinetobacter baumannii [13] = assay: Antibacterial activity against Acinetobacter baumannii Bio 69680 after 16 to 18 hrs by broth microdilution method; type: functional; conditions: time 16-18 hrs
# Escherichia coli [14] = assay: Antibacterial activity against Escherichia coli ATCC 25922 after 16 to 18 hrs by broth microdilution method; type: functional; conditions: time 16-18 hrs
# [15] = Cytotoxicity against human HeLa cells assessed as cell viability at 3.125 to 100 uM incubated for 24 hrs by MTT assay; type: toxicity, cell-based
# Acinetobacter baumannii [16] = assay: Antibacterial activity against Acinetobacter baumannii Bio 120982 after 16 to 18 hrs by broth microdilution method; type: functional; conditions: time 16-18 hrs
# Staphylococcus aureus [17] = assay: Antibacterial activity against methicillin-susceptible Staphylococcus aureus ATCC 25923 after 16 to 18 hrs by broth microdilution method; type: functional; conditions: time 16-18 hrs
# Acinetobacter baumannii [18] = assay: Antibacterial activity against Acinetobacter baumannii Bio 34235 after 16 to 18 hrs by broth microdilution method; type: functional; conditions: time 16-18 hrs
# Escherichia coli [19] = assay: Antibacterial activity against Escherichia coli ATCC 10668 after 16 to 18 hrs by broth microdilution method; type: functional; conditions: time 16-18 hrs
# Acinetobacter baumannii [20] = assay: Antibacterial activity against Acinetobacter baumannii Bio 53250 after 16 to 18 hrs by broth microdilution method; type: functional; conditions: time 16-18 hrs
# Escherichia coli [21] = assay: Antibacterial activity against Escherichia coli ATCC 10663 after 16 to 18 hrs by broth microdilution method; type: functional; conditions: time 16-18 hrs
# Staphylococcus aureus [22] = assay: Antibacterial activity against methicillin-susceptible Staphylococcus aureus ATCC 13709 after 16 to 18 hrs by broth microdilution method; type: functional; conditions: time 16-18 hrs
# Staphylococcus aureus [23] = assay: Antibacterial activity against methicillin-susceptible Staphylococcus aureus ATCC 29213 after 16 to 18 hrs by broth microdilution method; type: functional; conditions: time 16-18 hrs
# Acinetobacter baumannii [24] = assay: Antibacterial activity against drug-resistant Acinetobacter baumannii Bio 53272 after 16 to 18 hrs by broth microdilution method; type: functional; conditions: time 16-18 hrs
# Staphylococcus aureus [25] = assay: Antibacterial activity against methicillin-resistant Staphylococcus aureus Bio-090770 after 16 to 18 hrs by broth microdilution method; type: functional; conditions: time 16-18 hrs
# [26] = Methemoglobin toxicity in human blood at 500 uM incubated for 6 hrs by MetHb content assay; type: tissue-based
# Peptide deformylase [27] = molecular target: T1, Peptide deformylase (Staphylococcus aureus, UniProt P68826); assay: Inhibition of Staphylococcus aureus PDF-Ni assessed as enzyme activity incubated for 30 min by fluorescamine method
# T1 sequence (P68826 whole entry): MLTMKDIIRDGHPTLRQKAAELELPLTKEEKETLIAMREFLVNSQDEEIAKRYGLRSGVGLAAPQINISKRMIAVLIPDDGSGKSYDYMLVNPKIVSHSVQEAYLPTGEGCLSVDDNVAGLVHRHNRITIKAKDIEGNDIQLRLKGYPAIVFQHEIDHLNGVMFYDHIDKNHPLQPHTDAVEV
# Peptide deformylase [28] = molecular target: T2, Peptide deformylase (Escherichia coli, UniProt Q9JN24); assay: Inhibition of Escherichia coli PDF-Ni assessed as enzyme activity incubated for 30 min by fluorescamine method
# T2 sequence (Q9JN24 whole entry): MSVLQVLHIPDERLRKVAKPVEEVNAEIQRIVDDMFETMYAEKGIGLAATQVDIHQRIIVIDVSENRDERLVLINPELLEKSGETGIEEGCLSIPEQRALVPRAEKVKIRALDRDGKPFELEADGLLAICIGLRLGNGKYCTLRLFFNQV
structure (smiles),measurement,setting,value
CCCC[C@H](CN(O)C=O)C(=O)N1CCC[C@H]1c1nnc(-c2ccc([N+](=O)[O-])cc2F)s1,MIC,Klebsiella pneumoniae [1],32 µg/mL
same,MIC,Klebsiella pneumoniae [2],16 µg/mL
same,MIC,Acinetobacter baumannii [3],32 µg/mL
same,solubility at 2 h,[4],2020 µg/mL
same,Activity,Staphylococcus aureus [5],100%
same,MIC,[6],0.5 µg/mL
same,IC50 at 24 h,[7],> 100 µM
same,MIC,Staphylococcus aureus [8],0.125 µg/mL
same,MIC,Klebsiella pneumoniae [9],16 µg/mL
same,MIC,Escherichia coli [10],8 µg/mL
same,MIC,Acinetobacter baumannii [11],16 µg/mL
same,MIC,Staphylococcus aureus [12],0.125 µg/mL
same,MIC,Acinetobacter baumannii [13],16 µg/mL
same,MIC,Escherichia coli [14],> 16 µg/mL
same,IC50 at 24 h,[15],91.7 µM
same,MIC,Acinetobacter baumannii [16],16 µg/mL
same,MIC,Staphylococcus aureus [17],0.25 µg/mL
same,MIC,Acinetobacter baumannii [18],> 16 µg/mL
same,MIC,Escherichia coli [19],16 µg/mL
same,MIC,Acinetobacter baumannii [20],16 µg/mL
same,MIC,Escherichia coli [21],8 µg/mL
same,MIC,Staphylococcus aureus [22],0.5 µg/mL
same,MIC,Staphylococcus aureus [23],0.5 µg/mL
same,MIC,Acinetobacter baumannii [24],> 16 µg/mL
same,MIC,Staphylococcus aureus [25],0.5 µg/mL
CCCC[C@H](CN(O)C=O)C(=O)N1CCC[C@H]1c1nnc(-c2nccs2)s1,MIC,Klebsiella pneumoniae [2],> 16 µg/mL
same,MIC,[6],0.25 µg/mL
same,MIC,Staphylococcus aureus [8],0.25 µg/mL
same,MIC,Staphylococcus aureus [12],0.25 µg/mL
same,MIC,Escherichia coli [14],> 16 µg/mL
same,MIC,Staphylococcus aureus [17],1 µg/mL
same,MIC,Acinetobacter baumannii [18],16 µg/mL
same,Activity,[26],Toxic
same,MIC,Staphylococcus aureus [22],0.5 µg/mL
same,MIC,Staphylococcus aureus [23],2 µg/mL
same,MIC,Acinetobacter baumannii [24],8 µg/mL
same,MIC,Staphylococcus aureus [25],1 µg/mL
CCCC[C@H](CN(O)C=O)C(=O)N1CCC[C@H]1c1nnc(-c2ccc(C)s2)s1,MIC,Klebsiella pneumoniae [2],32 µg/mL
same,MIC,[6],1 µg/mL
same,MIC,Staphylococcus aureus [8],0.25 µg/mL
same,IC50,Peptide deformylase [27],0.0074 µM
same,MIC,Staphylococcus aureus [12],0.25 µg/mL
same,MIC,Escherichia coli [14],64 µg/mL
same,MIC,Staphylococcus aureus [17],4 µg/mL
same,MIC,Acinetobacter baumannii [18],32 µg/mL
same,MIC,Staphylococcus aureus [22],2 µg/mL
same,MIC,Staphylococcus aureus [23],2 µg/mL
same,MIC,Acinetobacter baumannii [24],16 µg/mL
same,IC50,Peptide deformylase [28],0.0985 µM
same,MIC,Staphylococcus aureus [25],2 µg/mL
CC(=O)NC[C@H]1CN(c2ccc(N3CCOCC3)c(F)c2)C(=O)O1 [LINEZOLID],MIC,Klebsiella pneumoniae [1],> 128 µg/mL
same,MIC,Klebsiella pneumoniae [2],128 µg/mL
same,MIC,Acinetobacter baumannii [3],128 µg/mL
same,MIC,[6],8 µg/mL
same,IC50 at 24 h,[7],> 100 µM
same,MIC,Staphylococcus aureus [8],1 µg/mL
same,MIC,Klebsiella pneumoniae [9],128 µg/mL
same,MIC,Escherichia coli [10],16 µg/mL
same,MIC,Acinetobacter baumannii [11],128 µg/mL
same,MIC,Staphylococcus aureus [12],1 µg/mL
same,MIC,Acinetobacter baumannii [13],128 µg/mL
same,MIC,Escherichia coli [14],> 128 µg/mL
same,IC50 at 24 h,[15],> 100 µM
same,MIC,Acinetobacter baumannii [16],128 µg/mL
same,MIC,Staphylococcus aureus [17],1 µg/mL
same,MIC,Acinetobacter baumannii [18],128 µg/mL
same,MIC,Escherichia coli [19],128 µg/mL
same,MIC,Acinetobacter baumannii [20],128 µg/mL
same,MIC,Escherichia coli [21],64 µg/mL
same,MIC,Staphylococcus aureus [22],1 µg/mL
same,MIC,Staphylococcus aureus [23],1 µg/mL
same,MIC,Acinetobacter baumannii [24],> 16 µg/mL
same,MIC,Staphylococcus aureus [25],1 µg/mL
CCCC[C@H](CN(O)C=O)C(=O)N1CCC[C@H]1C(=O)Nc1ccc(F)c[n+]1[O-],MIC,Klebsiella pneumoniae [1],64 µg/mL
same,MIC,Klebsiella pneumoniae [2],64 µg/mL
same,MIC,Acinetobacter baumannii [3],32 µg/mL
same,solubility at 2 h,[4],1650 µg/mL
same,MIC,[6],0.25 µg/mL
same,IC50 at 24 h,[7],> 100 µM
same,MIC,Staphylococcus aureus [8],0.125 µg/mL
same,MIC,Klebsiella pneumoniae [9],64 µg/mL
same,MIC,Escherichia coli [10],8 µg/mL
same,MIC,Acinetobacter baumannii [11],32 µg/mL
same,MIC,Staphylococcus aureus [12],0.25 µg/mL
same,MIC,Acinetobacter baumannii [13],16 µg/mL
same,MIC,Escherichia coli [14],32 µg/mL
same,IC50 at 24 h,[15],> 100 µM
same,MIC,Acinetobacter baumannii [16],16 µg/mL
same,MIC,Staphylococcus aureus [17],0.5 µg/mL
same,MIC,Acinetobacter baumannii [18],32 µg/mL
same,MIC,Escherichia coli [19],32 µg/mL
same,MIC,Acinetobacter baumannii [20],32 µg/mL
same,Activity,[26],Toxic
same,MIC,Escherichia coli [21],16 µg/mL
same,MIC,Staphylococcus aureus [22],0.25 µg/mL
same,MIC,Staphylococcus aureus [23],0.25 µg/mL
same,MIC,Acinetobacter baumannii [24],> 16 µg/mL
same,MIC,Staphylococcus aureus [25],0.5 µg/mL
